A short description of data set [1]: logP determination by HPLC on reversed-phase column (C18), EEC Directive 79/831 Annex V.A8. In kind it is physicochemical. Conditions: for chromatographic logP: reversed-phase HPLC column (C18).
For the next data set, the system named is Tetranychus urticae. The experiment in a line: Tetranychus urticae spray test OP-resistant. In kind it is in vivo. Conditions: in Phaseolus vulgaris, foliar, 144 h. The method, then:
Tetranychus urticae—Spray Test OP-Resistant
(§1) To produce a suitable preparation of active compound, 1 part by weight of active compound is mixed with the stated amount of solvents and is diluted with water, containing an emulsifier concentration of 1000 ppm, to the desired concentration. Further test concentrations are prepared by dilution with emulsifier containing water.
French bean (Phaseolus vulgaris) leaf disks infected with all instars of the two spotted spidermite (Tetranychus urticae), are sprayed with a preparation of the active ingredient of the desired concentration.
After 6 days mortality in % is determined. 100% means all spider mites have been killed and 0% means none of the spider mites have been killed.

In another data set the test system is Spodoptera frugiperda. The experiment in a line: Spodoptera frugiperda spray test. In kind it is in vivo. Conditions: for mortality: 100 g/ha, maize leaf sections, larvae, after 7 days. The method, then:
Spodoptera Frugiperda—Spray Test
as §1
Maize (Zea mays) leaf sections are sprayed with a preparation of the active ingredient of the desired concentration. Once dry, the leaf sections are infested with fall armyworm larvae (Spodoptera frugiperda).
After 7 days mortality in % is determined. 100% means all caterpillars have been killed and 0% means none of the caterpillars have been killed.

A further data set deals with Phaedon cochleariae. The experiment in a line: Phaedon cochleariae spray test. Conditions: in Brassica rapa, foliar, 168 h. Format: in vivo. As to the method:
Phaedon cochleariae—Spray Test
as §1
Chinese cabbage (Brassica pekinensis) leaf disks are sprayed with a preparation of the active ingredient of the desired concentration. Once dry, the leaf disks are infested with mustard beetle larvae (Phaedon cochleariae).
After 7 days mortality in % is determined. 100% means all beetle larvae have been killed and 0% means none of the beetle larvae have been killed.

The next data set has as its system Boophilus microplus. The experiment in a line: Boophilus microplus injection test (BOOPMI Inj). In kind it is in vivo. To be noted: 20 μg/animal, injection into adult engorged female ticks, egg deposition after 7 days. As to the method: Boophilus Microplus—Injectiontest (BOOPMI Inj)
(§2) Solvent: Dimethyl Sulfoxide
To produce a suitable preparation of active compound, 10 mg of active compound are dissolved in 0.5 ml solvent, and the concentrate is diluted with solvent to the desired concentration.
Five adult engorged female ticks (Boophilus microplus) are injected with 1 μl compound solution into the abdomen. The ticks are transferred into replica plates and incubated in a climate chamber.
After 7 days egg deposition of fertile eggs is monitored. Eggs where fertility is not visible are stored in a climate chamber till hatching after about 42 days. An efficacy of 100% means all eggs are infertile; 0% means all eggs are fertile.

The next data set has as its system Lucilia cuprina. The experiment in a line: Lucilia cuprina test (LUCICU). In kind it is in vivo. To be noted: 100 ppm, 1st instar larvae, after 2 days. As to the method: Lucilia cunrina—Test (LUCICU)
as §2
10 mg active compound are dissolved in 0.5 ml Dimethylsulfoxid. Serial dilutions are made to obtain the desired rates.
Approximately 20 1st instar larvae of the Australian sheep blowfly (Lucilia cuprina) are transferred into a test tube containing minced horse meat and compound solution of the desired concentration.
After 2 days mortality in % is determined. 100% means all the larvae have been killed; 0% means none of the larvae have been killed.

In another data set the test system is Ctenocephalides felis. The experiment in a line: Ctenocephalides felis oral test (CTECFE). To be noted: 100 ppm in cattle blood, adult cat fleas, after 2 days. Format: in vivo. As to the method:
Ctenocephalides felis—Oral Test (CTECFE)
as §2
To produce a suitable preparation of active compound, 10 mg of active compound are dissolved in 0.5 ml solvent, and the concentrate is diluted with cattle blood to the desired concentration.
Approximately 20 adult unfed cat fleas (Cienocephalides felis) are placed in flea chambers. The blood chamber, sealed with parafilm on the bottom, are filled with cattle blood supplied with compound solution and placed on the gauze covered top of the flea chamber, so that the fleas are able to suck the blood. The blood chamber is heated to 37° C. whereas the flea chamber is kept at room temperature.
After 2 days mortality in % is determined. 100% means all the fleas have been killed; 0% means none of the fleas have been killed.

The test system of a further data set is Myzus persicae. The experiment in a line: Myzus persicae spray test. In kind it is in vivo. Conditions: 100 g/ha, Chinese cabbage leaf disks, all instars, after 6 days. The method, then: Myzus Persicae—Spray Test
as §1
Chinese cabbage (Brassica pekinensis) leaf disks infected with all instars of the green peach aphid (Myzus persicae), are sprayed with a preparation of the active ingredient of the desired concentration.
After 6 days mortality in % is determined. 100% means all aphids have been killed and 0% means none of the aphids have been killed.

The mark [2] stands for this setting: intermediates, values in text, same HPLC method.
[3] abbreviates: intermediates, values in text, same HPLC method, read-out: log P (HPLC-MS).
Where [4] appears, read: HPLC, C18, acetonitrile (0.1% formic acid)/water (0.09% formic acid) gradient, read-out: logP.
Setting [5] is: HPLC, C18, acetonitrile (0.1% formic acid)/water (0.09% formic acid) gradient.

Where two headings read alike, the source gives them in different places.

As for “4′-(difluoromethyl)-5′-(1-fluorocyclopropyl)-4-iodo-2′-methyl-2′H-1,3′-bipyrazole [Example 26]”, the “log P (HPLC-MS)” value in data set [1] (setting [2]) amounted to 3.37. Turning to “5′-(1-fluorocyclopropyl)-4-iodo-2′-methyl-2′H-1,3′-bipyrazole-4′-carbaldehyde [Example 25]”, the “log P (HPLC-MS)” value in data set [1] (setting [2]) is listed as 2.86. Consider `N#CC1(NC(=O)c2cc(-c3cn[nH]c3)ccc2Cl)CC1` [Example 14, 2-chloro-N-(1-cyanocyclopropyl)-5-(1H-pyrazol-4-yl)benzamide], for which, in data set [1] (setting [3]), the chromatographic logP was 1.31. Turning to `CN(C)/C=C/C(=O)C1(F)CC1` [Example 16, (2E)-3-(dimethylamino)-1-(1-fluorocyclopropyl)prop-2-en-1-one], in data set [1] (setting [3]), the chromatographic logP is 1.16. As for `Cn1nc(C2(F)CC2)c(C=O)c1Cl` [Example 24, 5-chloro-3-(1-fluorocyclopropyl)-1-methyl-1H-pyrazole-4-carbaldehyde], the chromatographic logP in data set [1] (setting [3]) amounted to 1.71. As to `COC(=O)c1cc(-c2cnn(-c3c(C(F)F)c(C4(F)CC4)nn3C)c2)ccc1Cl` [Example 28, methyl 2-chloro-5-[4′-(difluoromethyl)-5′-(1-fluorocyclopropyl)-2′-methyl-2′H-1,3′-bipyrazol-4-yl]benzoate], the chromatographic logP in data set [1] (setting [3]) worked out at 3.63. On the same count and under the same terms, for `Cn1nc(C2(F)CC2)c(C(F)F)c1-n1cc(-c2ccc(Cl)c(C(=O)O)c2)cn1` [Example 29, 2-chloro-5-[4′-(difluoromethyl)-5′-(1-fluorocyclopropyl)-2′-methyl-2′H-1,3′-bipyrazol-4-yl]benzoic acid] the value was 2.71; for `CN1N=C(C2(F)CC2)CC1=O` [Example 32, 5-(1-fluorocyclopropyl)-2-methyl-2,4-dihydro-3H-pyrazol-3-one], 0.38. Regarding `Cn1nc(C2(F)CC2)c(C(F)(F)F)c1-n1cc(-c2ccc(Cl)c(C(=O)NC3(C#N)CC3)c2)cn1` [Example I-1, 2-chloro-N-(1-cyanocyclopropyl)-5-[5′-(1-fluorocyclopropyl)-2′-methyl-4′-(trifluoromethyl)-2′H-1,3′-bipyrazol-4-yl]benzamide], in data set [1] (setting [4]), the chromatographic logP worked out at 3.09. For orientation: mortality means the share of the test organisms that died. High values mean a strong lethal effect, low ones a weak lethal effect. Take `Cn1nc(C2(F)CC2)c(C(F)F)c1-n1cc(-c2ccc(Cl)c(C(=O)NC3(C#N)CC3)c2)cn1` [Example I-2, 2-chloro-N-(1-cyanocyclopropyl)-5-[4′-(difluoromethyl)-5′-(1-fluorocyclopropyl)-2′-methyl-2′H-1,3′-bipyrazol-4-yl]benzamide]: the chromatographic logP in data set [1] (setting [4]) was found to be 2.78. Also, the mortality at 100 g/ha with Tetranychus urticae stood at 100%; in the data set with Spodoptera frugiperda (Spodoptera frugiperda, in Zea mays, 168 h), 100%; in the data set on Phaedon cochleariae it was 100%. Usually logP stands for a log measure of how a compound divides between an organic and an aqueous phase. For the compound `Cn1nc(C2(F)CC2)c(C(F)F)c1-n1cc(-c2ccc(Cl)c(C(=O)NC3CC3)c2)cn1` [Example I-3], the lipophilicity (logP) in data set [1] (setting [5]) was 2.81.

Compound `Cn1nc(C2(F)CC2)c([N+](=O)[O-])c1-n1cc(-c2ccc(Cl)c(C(=O)NC3(C#N)CC3)c2)cn1` [Example I-4] registered a logP in data set [1] (setting [5]) of 2.69. Further, the “efficacy (infertile eggs)” value in the data set with Boophilus microplus is on record as 100%. The mortality in the data set on Lucilia cuprina and with Ctenocephalides felis was 100% in each case. Regarding `Cn1nc(C2(F)CC2)c([N+](=O)[O-])c1-n1cc(-c2ccc(Cl)c(C(=O)NC3CC3)c2)cn1` [Example I-5], the logP in data set [1] (setting [5]) worked out at 2.70. Take `Cn1nc(C2(Br)CC2)c([N+](=O)[O-])c1-n1cc(-c2ccc(Cl)c(C(=O)NC3CC3)c2)cn1` [Example I-6]: the logP in data set [1] (setting [5]) was 2.98.

In turn, `Cn1nc(C2(Cl)CC2)c(C(F)F)c1-n1cc(-c2ccc(Cl)c(C(=O)NC3(C#N)CC3)c2)cn1` [Example I-7] yielded a log partition coefficient (logP) in data set [1] (setting [5]) of 2.96. Moreover, the mortality with Myzus persicae was 90%; in the data set on Spodoptera frugiperda, 100%.

Compound `Cn1nc(C2(Cl)CC2)c(C(F)F)c1-n1cc(-c2ccc(Cl)c(C(=O)NC3CC3)c2)cn1` [Example I-8] had a logP in data set [1] (setting [5]) of 3.05. The compound also displayed a mortality in the data set on Spodoptera frugiperda of 100%. Take `Cn1nc(C2(Cl)CC2)c(C(F)F)c1-n1cc(-c2cnc(Cl)c(C(=O)NC3(C#N)CC3)c2)cn1` [Example I-9]: the logP in data set [1] (setting [5]) was found to be 2.63.

With `Cn1nc(C2(Cl)CC2)c(C(F)F)c1-n1cc(-c2cnc(Cl)c(C(=O)NC3CC3)c2)cn1` [Example I-10], the logP in data set [1] (setting [5]) worked out at 2.60. On the same count and under the same terms, as for `Cn1nc(C2(F)CC2)c(C(F)F)c1-n1cc(-c2cnc(Cl)c(C(=O)NC3(C#N)CC3)c2)cn1` [Example I-11], the figure is 2.44; as for `Cn1nc(C2(F)CC2)c(C(F)F)c1-n1cc(-c2cnc(Cl)c(C(=O)NC3CC3)c2)cn1` [Example I-12], 2.42.

The values above are taken from US20170217899A1, “NOVEL HALOGEN-SUBSTITUTED COMPOUNDS” (BAYER CROPSCIENCE AKTIENGESELLSCHAFT, priority 2014, published 2017).
